{
  "source": "patent US11376278B2",
  "about": "“Compositions and methods for treating disease” (Sulfilatec, Inc., priority 2016, dated 2022)",
  "key": {"[1]": {"system": "cardiac fibrosis in salt sensitive Dahl rats on a high salt diet", "test": "Cardiac interstitial fibrosis, Masson's Trichrome staining, Dahl rats on high salt diet", "type": "in vivo, rat", "settings": "300 mg NaBr per kg AIN-76a+8% NaCl, 10 weeks, p<0.0001", "protocol": "(§1) AIN-76A was base diet for all animals. […] Fibrosis determined from 5 μm tissue sections stained with Masson's Trichrome. […] Approximately 25-30 images were collected and processed per animal."}, "[2]": {"test": "Serum Br- concentration in spontaneously hypertensive rats (SHR) after 10 weeks on diet", "type": "in vivo, rat", "settings": "AIN-76A+Br diet", "method": "(A) Serum Br^− concentrations from rats fed a daily diet over 10 weeks of “AIN-76A”, “AIN-76A+8% NaCl”, “AIN-76A+Br”, or “AIN-76A+8% NaCl+Br”. Salt sensitive Dahl rats as well as Spontaneously Hypertensive Rats (SHR) were used in these studies. The two diets containing 8% NaCl (eg. “AIN-76A+8% NaCl” and “AIN-76A+8% NaCl+Br”) were fed to Dahl rats while the remaining two diets (eg. “AIN-76A” and “AIN-76A+Br”) were fed to SHR, as indicated in panel A. Serum Br^− measurements were determined using mass spectrometry.\nRats were administered 10 mg of NaBr per kg of AIN76A diet for 10 weeks. At the end of the study, serum Br^− levels in Br-treated rats were compared to serum Br^− levels in SHR on AIN76A as well as Wistar rats on AIN76A."}, "dogs (epilepsy)": {"system": "dogs (epilepsy)", "settings": "dogs that do not respond to an initial course of Br- treatment; cited from earlier work"}, "10 week-old male SHR": {"system": "10 week-old male SHR", "test": "Blood pressure and heart rate (tail cuff) one day after single IP administration in SHR", "type": "in vivo, rat", "settings": "single IP 154.5 μg NaBr per kg", "protocol": "(A) In 10 week-old male SHR, single administration of Br^− reduced systolic and diastolic blood pressures compared to saline control. […] (C-D) Measured values for systolic (C) and diastolic (D) blood pressure, denoting statistical significance where achieved. 154.5 μg NaBr per kg rat body weight injected via IP. All “Post Administration” data collected one day following administration. n=8 in Br Treatment group, =5 in saline control. BP & HR measured via tail cuff. *:p<0.05, t test.\nThe inventors next asked whether Br^− exerts any short-term activity in addition to the improved cardiac fibrosis noted after 10 weeks administration. Returning to the SHR preclinical model of disease, the inventors specifically asked whether Br^− administration modulates certain biomarkers associated with cardiovascular disease at one day post-administration. To this end, Br^− was administered to 8 SHR via intraperitoneal (IP) injection with an estimated 0.154 μg NaBr per gram body weight. For control, 8 SHR were administered saline via IP injection containing an estimated 4 ng NaBr per gram body weight. […] Without wishing to be bound by theory, embodiments as described herein can therapeutically improve certain hemodynamic and circulating biomarkers that are associated with progression of cardiovascular and kidney diseases. Moreover, Br^− achieves its cardiovascular and renal therapeutic activities in part via modulation of natriuretic peptide signaling."}, "[3]": {"system": "salt sensitive Dahl rats on high salt diet", "test": "Survival of salt sensitive Dahl rats on high salt (8% NaCl) diet, 10 week study", "type": "in vivo, rat", "description": "Control rats received AIN76A without supplemental chloride or bromide. 9 rats per study arm.\nMortality events were counted over the 10 week study. […] Thus, administration of Br^− and together increased the survival probability of 52% as compared to administration of alone (FIG. 1)."}, "[4]": {"system": "humans (sedative, anti-epilepsy effect)", "settings": "in vivo; cited from earlier work"}, "[5]": {"test": "Serum Br- concentration in Dahl rats after 10 weeks on diet (mass spectrometry)", "settings": "AIN-76A+8% NaCl+Br diet", "method": "(A) Serum Br^− concentrations from rats fed a daily diet over 10 weeks of “AIN-76A”, “AIN-76A+8% NaCl”, “AIN-76A+Br”, or “AIN-76A+8% NaCl+Br”. […] The two diets containing 8% NaCl (eg. “AIN-76A+8% NaCl” and “AIN-76A+8% NaCl+Br”) were fed to Dahl rats while the remaining two diets (eg. “AIN-76A” and “AIN-76A+Br”) were fed to SHR, as indicated in panel A. Serum Br^− measurements were determined using mass spectrometry."}, "cardiac fibrosis in SHR": {"system": "cardiac fibrosis in SHR", "test": "Cardiac interstitial fibrosis, Masson's Trichrome staining, SHR", "type": "in vivo, rat", "settings": "male SHR, 10 mg NaBr per kg AIN-76a, oral daily, 10 weeks, p<0.0001", "protocol": "as §1\nFollowing conclusion of the in vivo study, rat hearts were formalin-fixed, paraffin-embedded, and 5 μm-thick sections were obtained for histochemical analysis."}, "[6]": {"system": "spontaneously hypertensive rat (SHR) model of cardiovascular disease", "test": "10 week repeat dosing study in SHR disease model (organ weights, survival, urinary protein, safety)", "type": "in vivo", "protocol": "(A-B) Heart and kidney weights from 10 week repeat dosing study in SHR model. Br^− administered daily via diet, with AIN-76a as base diet. WKY served as genetic control. Both kidneys per animal weighed together. […] (C-D) Heart and kidney weights from panels A-B normalized to body weight. […] (E) Rats were administered a diet of AIN76A with or without 10 mg NaBr per kg feed (“SHR” and “SHR+Br” study arms, respectively). Survival probability was calculated between SHR rats receiving dietary Br^− and SHR rats receiving AIN76A control diet over a 10 week study period. As a second control, Wistar Kyoto (WKY) rats were fed AIN76A control diet over the same period. 8 rats per study arm.\nEight SHR animals received AIN76A diet for 10 weeks while 8 SHR animals received AIN76A supplemented with 10 mg NaBr/kg diet."}, "[7]": {"system": "acute heart failure patients", "settings": "acute heart failure patients in Japan; cited from earlier work"}, "[8]": {"system": "patients with acute decompensated heart failure", "settings": "cited from earlier work"}, "[9]": {"settings": "one day post administration, vs saline"}},
  "note": "“And” between values parts separate entries of the source, which are not always exact repeats. Equal entries are not always repeated. “Also recorded” adds a separate entry of the source.",
  "data": [
    {"compound": "[Br-].[Na+]", "note": "[Br^−, sodium bromide]", "values": [
      {"measurement": "cardiac fibrosis (Masson's Trichrome)", "setting": "[1]", "result": "less cardiac fibrosis"},
      {"measurement": "serum Br- concentration, toxicity assessment", "setting": "[2]", "result": "non-toxic"},
      {"measurement": "therapeutic serum Br- for sedative effect", "setting": "dogs (epilepsy)", "result": "above 25 mM"},
      {"measurement": "diastolic blood pressure", "setting": "10 week-old male SHR; [9]", "result": "reduced"},
      {"measurement": "systolic blood pressure", "setting": "10 week-old male SHR; [9]", "result": "statistically significant reductions; also recorded: reduced"},
      {"measurement": "heart rate", "setting": "10 week-old male SHR; one day post, not statistically significant (p=0.052)", "result": "possible reduction"},
      {"measurement": "increase of survival probability compared to high salt alone", "setting": "[3]; Dahl rats, 8% NaCl + 300 mg NaBr per kg food vs 8% NaCl, 10 weeks", "result": 52, "unit": "%"},
      {"measurement": "survival probability", "setting": "[3]; Dahl rats, AIN76A with 8% NaCl and 300 mg NaBr per kg food, 10 week study", "result": 67, "unit": "%"},
      {"measurement": "survival probability vs High Salt alone (log rank test)", "setting": "[3]; High Salt+Br arm (AIN76A+8% NaCl+300 mg NaBr per kg feed), 9 rats per arm, p<0.001", "result": "Significantly greater survival probability"},
      {"measurement": "circulating/serum Br- levels at which the anti-epilepsy effect occurs", "setting": "[4]", "result": "> 6 mM and 6 to 12 mM"},
      {"measurement": "serum Br- concentration, toxicity assessment", "setting": "[5]", "result": "non-toxic"},
      {"measurement": "cardiac fibrosis (Masson's Trichrome blue staining)", "setting": "cardiac fibrosis in SHR", "result": "dramatic reduction; also recorded: less cardiac fibrosis"},
      {"measurement": "survival probability among groups", "setting": "[6]; SHR+Br vs SHR and WKY, 10 week study, 8 rats per arm", "result": "no statistical difference"},
      {"measurement": "absolute heart weight vs SHR on AIN-76a alone", "setting": "[6]; SHR, 10 mg NaBr/kg diet daily, 10 weeks, p<0.05", "result": "significantly reduced; also recorded: Statistically significant reduction"},
      {"measurement": "urinary protein levels", "setting": "[6]; SHR, 10 mg NaBr/kg diet, through the end of the 10 week study", "result": "a difference that persisted"},
      {"measurement": "urinary microprotein/creatinine ratio (urinary protein levels)", "setting": "[6]; SHR, after one day on study diet (10 mg NaBr/kg)", "result": "significantly lower; also recorded: significantly reduced"}
    ]},
    {"compound": "CC[C@H](C)[C@@H]1NC(=O)[C@H](CCCNC(=N)N)NC(=O)[C@H](CC(=O)O)NC(=O)[C@H](CCSC)NC(=O)[C@H](CCCNC(=N)N)NC(=O)CNC(=O)CNC(=O)[C@H](Cc2ccccc2)NC(=O)[C@@H](NC(=O)[C@H](CO)NC(=O)[C@H](CO)NC(=O)[C@H](CCCNC(=N)N)NC(=O)[C@H](CCCNC(=N)N)NC(=O)[C@H](CC(C)C)NC(=O)[C@@H](N)CO)CSSC[C@@H](C(=O)N[C@@H](CC(N)=O)C(=O)N[C@@H](CO)C(=O)N[C@@H](Cc2ccccc2)C(=O)N[C@@H](CCCNC(=N)N)C(=O)N[C@@H](Cc2ccc(O)cc2)C(=O)O)NC(=O)CNC(=O)[C@H](CC(C)C)NC(=O)CNC(=O)[C@H](CO)NC(=O)[C@H](CCC(N)=O)NC(=O)[C@H](C)NC(=O)CNC1=O", "note": "[carperitide]", "values": [
      {"measurement": "in-hospital mortality", "setting": "[7]", "result": "increased in-hospital mortality"}
    ]},
    {"compound": "nesiritide", "values": [
      {"measurement": "mortality", "setting": "[8]", "result": "increased mortality"},
      {"measurement": "renal function", "setting": "[8]", "result": "worsening renal function"}
    ]}
  ]
}
